In the test the target is Nonstructural protein 3 (Zika virus, UniProt A0A024AXB9). Kind of test: Functional biochemical assay to identify treatments for viral infectious disease that targets Zika NS2B-NS3 protease. Utilizing a direct enzyme activity measurement method, reading the fluorescence intensity is used to characterize the relative potency of inhibitors as IC50. Also noted: species or system PRVABC59.

“And” between values parts separate entries of the source, which are not always exact repeats. Equal values may be shown once.

Sequence of Nonstructural protein 3 (A0A024AXB9 whole entry): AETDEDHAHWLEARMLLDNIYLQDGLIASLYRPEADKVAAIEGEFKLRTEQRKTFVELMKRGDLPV

The term IC50 denotes the concentration needed to halve the response being measured. As for `N#C[C@]1(Nc2ccc3c(c2)CNC3)C(=O)Nc2ccccc21`, the IC50 is 27.4 µM. In the case of `CCc1cc(C(=O)Nc2ccc3c(c2)CNC3)sc1-c1ccc(Cl)cc1` it was greater than 99.5 µM; in that of `CC(C)(C)OC(=O)NCc1cc(NC(=O)c2cc(Cl)cc(NC(=O)OCc3ccccc3)c2)cc(-c2nn[nH]n2)c1`, 11.5 µM. For the molecule `NCCCCc1ccc(NC(=O)c2cc(Cl)cc3[nH]ncc23)cc1`, the IC50 stood at 19.9 µM. `O=C(Nc1ccc2c(c1)CNCC2)c1cc(Cl)cc2[nH]ncc12` gave an IC50 of 0.504 µM.

On to `O=C(O)c1cc2cc(-c3cccc([C@H]4CNCCO4)c3)ccc2[nH]1`, for which the IC50 was greater than 99.5 µM. `O=C(O)Cc1c[nH]c2cc(-c3cc(Cl)cc(NC(=O)OCc4ccccc4)c3)ccc12` gave an IC50 greater than 99.5 µM. On to `CC(C)(C)c1cc(Br)cc(C(=O)Nc2ccc3c(c2)CNC3)c1`, for which the IC50 is 0.356 µM. This lies in the sub-micromolar range. As for `Cc1oc2nc(-c3cc(Cl)cc(NC(=O)OCc4ccccc4)c3)ccc2c1C(=O)O`, the IC50 is greater than 99.5 µM. The molecule `CN1Cc2ccc(NC(=O)c3cc(Cl)cc4[nH]ncc34)cc2C1` showed an IC50 of 0.832 µM. Then `Cc1cc(CN)cc(NC(=O)c2cc(Cl)cc3[nH]ncc23)c1`, with 0.736 µM. Take `O=C(O)C[C@H]1CN(c2ccc(-c3cc(Cl)cc(NC(=O)OCc4ccccc4)c3)cn2)CCO1`: the IC50 is greater than 99.5 µM. In the case of `CC(C)NC(=O)[C@H](Nc1ccc2c(c1)CNC2)c1cc(Cl)cc2[nH]ncc12` it was 0.086 µM and 0.054 µM and 0.124 µM and 0.138 µM and 0.089 µM; in that of `O=C(Nc1ccc2c(c1)CNC2)c1cc(Br)cc2ccccc12`, 0.206 µM. `NCCc1ccc(NC(=O)c2cc(Cl)cc3[nH]ncc23)cc1`: the IC50 stood at 3.78 µM. Against the preceding molecule, the IC50 is about 18-fold higher. Regarding `Cc1c(C(=O)NCc2ccc(CN)cc2)cc(C2CC2)n1C`, the IC50 was greater than 99.5 µM. Then `O=C(Nc1cc(Cl)cc(-c2cnn(Cc3ccc(C(=O)O)cc3)c2)c1)OCc1ccccc1`, with 39.4 µM. `C=C1C[C@H](c2cc(Cl)cc(NC(=O)OCc3ccccc3)c2)[C@@H](c2cccc(-c3nn[nH]n3)c2)C1` came in with an IC50 of 18.9 µM. `O=C(Nc1ccc2c(c1)CNC2)c1cc(Cl)cc(C2CC2)c1` registered an IC50 of 0.216 µM.

Molecule `NCc1cc(NC(=O)c2cc(Cl)cc(NC(=O)OCc3ccccc3)c2)cc(-c2csc(CC(=O)O)c2)c1` yielded an IC50 of 15 µM.

The molecule `O=C(Nc1ccc2c(c1)CNC2)c1cc(Cl)cc2c1CCC2` yielded an IC50 of 0.159 µM. On to `Cc1c(C(=O)Nc2cc(-c3ccccn3)c(Br)cn2)cc(C2CC2)n1C`, for which the IC50 was greater than 99.5 µM. In the case of `O=C(O)c1cc2cc(-c3cc(Cl)cc4ncccc34)ccc2[nH]1` it was 40.3 µM. As for `O=C(O)c1cc2cccc(Cc3c[nH]c4ccc(Cl)cc34)c2[nH]1`, the IC50 is greater than 99.5 µM. Molecule `Nc1cc(Cl)cc(C(=O)Nc2ccc3c(c2)CNC3)c1N` displayed an IC50 of 0.354 µM. Molecule `O=C(Nc1ccc2c(c1)CNC2)c1n[nH]c(=O)c2ccccc12` showed an IC50 of 22.4 µM.

`O=C1OCc2ccc(NC(=O)c3cc(Cl)cc4[nH]ncc34)cc21` had an IC50 of 32.3 µM.

As to `O=C(Nc1ccc2c(c1)CNC2)c1n[nH]c2ncc(Br)cc12`, the IC50 worked out at 46.1 µM.

In turn, `Cc1c(C(=O)Nc2cc(-c3cnn(C)c3)ccn2)cc(C2CC2)n1C` had an IC50 greater than 99.5 µM.

`N#Cc1cc(-c2ccc3[nH]c(C(=O)O)cc3c2)c2nc[nH]c2c1` displayed an IC50 greater than 99.5 µM. Molecule `CCCc1sc(C(=O)Nc2ccc3c(c2)CNC3)cc1CC` displayed an IC50 of 20.1 µM. Take `O=C(Nc1ccc2c(c1)CNC2)c1ccccn1`: 57.3 µM corresponded to half-maximal inhibition (IC50). As to `N#Cc1ccc(Cl)c(C(=O)Nc2ccc3c(c2)CNC3)c1`, half-maximal inhibition (IC50) required 1.99 µM. In the case of `O=C(O)c1nc(Cc2c[nH]c3ccc(Cl)cc23)c2ccccn12`, the IC50 was greater than 99.5 µM. With `Cc1cc(CC(=O)O)ccc1Cc1c[nH]c2ccc(Cl)cc12`, the IC50 is greater than 99.5 µM. In turn, `O=C(Nc1ccc2c(c1)CNC2)c1ccnc(CO)c1` registered an IC50 greater than 99.5 µM. In the case of `Cc1c(C(=O)Nc2cc(C(=O)N(C)C)ccn2)cc(C2CC2)n1C`, the IC50 is greater than 99.5 µM. For the molecule `O=C(Nc1ccc([C@H]2CCNC2)cc1)c1cc(Cl)cc2[nH]ncc12`, the IC50 was 2.51 µM. That is a single-digit micromolar value. `C=CC[C@H](Nc1ccc2c(c1)CNC2)c1cc(Cl)cc2[nH]ncc12` showed an IC50 of 7.93 µM. As to `O=C(Nc1ccc2c(c1)CNC2)c1cccnc1`, the IC50 was 16.6 µM. In the case of `O=C(O)c1cc2cc(-c3cccc([C@H]4COCCN4)c3)ccc2[nH]1` it was greater than 99.5 µM. With `CC(C)c1cc(Br)cc(C(=O)Nc2ccc3c(c2)CNC3)c1`, the IC50 came out at 0.393 µM. The molecule `N[C@H]1CC[C@H](c2ccc(NC(=O)c3cc(Cl)cc4[nH]ncc34)cc2)C1` gave an IC50 of 8.51 µM. In the case of `Cc1ccc(C(C)C)c(C(=O)Nc2ccc3c(c2)CNC3)c1` it was 3.72 µM; in that of `O=C(Nc1ccc2c(c1)CNC2)c1cc(Br)cc2c1OCO2`, 0.848 µM.

On to `O=C(O)COc1cc2c(cc1Cc1c[nH]c3ccc(Cl)cc13)OCO2`, for which the IC50 was greater than 99.5 µM.

With `Clc1ccc2c(c1)ncn2Cc1ccc(-c2nn[nH]n2)cc1`, the IC50 is greater than 99.5 µM.

The molecule `NCCCc1ccnc(NC(=O)c2csc(C3CC3)n2)c1` displayed an IC50 greater than 99.5 µM.

`Cc1ccc(-c2cc(CN)cc([C@@H]3C[C@H]3c3cc(Cl)cc(NC(=O)OCc4ccccc4)c3)c2)cn1` registered an IC50 of 3.56 µM. In the case of `O=C(Nc1ccc2c(c1)CNC2)[C@H]1CCc2ccccc21` it was greater than 99.5 µM; in that of `O=C(Nc1ccc2c(c1)CNC2)c1ccncc1`, greater than 99.5 µM. In the case of `COC(=O)c1cc(Br)cc2c(Cc3ccc(-c4nnn[nH]4)cc3)c[nH]c12` it was greater than 99.5 µM; in that of `O=C1Cc2cc(NC(=O)c3cc(Cl)cc4[nH]ncc34)ccc2N1`, greater than 99.5 µM; in that of `O=C(Nc1ccc2c(c1)OCO2)c1cc(Cl)cc2[nH]ncc12`, greater than 99.5 µM. As to `Cc1c(C(=O)O)sc2ncc(Cc3c[nH]c4ccc(Cl)cc34)cc12`, half-maximal inhibition (IC50) required 97.2 µM. Regarding `O=C(Nc1ccc(C2CNC2)cc1)c1cc(Cl)cc2[nH]ncc12`, half-maximal inhibition (IC50) was put at 1.22 µM. `CCc1nc2c(C(=O)Nc3ccc4c(c3)CNC4)cc(Br)cc2[nH]1` showed an IC50 of 0.187 µM.

`Clc1ccc2nc(C3CCOCC3)n(Cc3ccc4c(c3)CNC4)c2c1`: the half-maximal inhibitory concentration (IC50) is greater than 99.5 µM.

`CC(C)c1nc2cc(Cl)ccc2n1Cc1ccc(-c2nn[nH]n2)cc1` displayed an IC50 greater than 99.5 µM. For `Nc1ccc(NC(=O)c2cc(Cl)cc3[nH]ncc23)cn1`, the IC50 is greater than 99.5 µM. The molecule `O=C(Nc1ccc2c(c1)C[C@H](O)C2)c1cc(Cl)cc2[nH]ncc12` came in with an IC50 greater than 99.5 µM. In the case of `N[C@H]1CCc2cc(NC(=O)c3cc(Cl)cc4[nH]ncc34)ccc21` it was 5.21 µM.

In the case of `O=C1CCc2cc(NC(=O)c3cc(Cl)cc4[nH]ncc34)ccc2N1`, the IC50 was greater than 99.5 µM. Molecule `O=C(O)c1nn(-c2ccccc2)cc1Cc1c[nH]c2ccc(Cl)cc12` had an IC50 greater than 99.5 µM. `O=C(Nc1cc(Cl)cc(-c2cc(NCc3ccccc3)c(C(=O)O)cn2)c1)OCc1ccccc1` gave an IC50 of 14 µM. Regarding `N#Cc1cccc(C[C@H](O)c2cc(Cl)cc(NC(=O)OCc3ccccc3)c2)c1`, the IC50 is greater than 99.5 µM. For `O=C(Nc1ccc(C2CCNCC2)cc1)c1cc(Cl)cc2[nH]ncc12`, the 50% inhibitory concentration (IC50) worked out at 9.21 µM.

For the molecule `Cc1cc(-c2ccc3[nH]c(C(=O)O)cc3c2)c2cc[nH]c(=O)c2c1`, the IC50 is greater than 99.5 µM. As to `CC(C)c1nc2c(C(=O)Nc3ccc4c(c3)CNC4)cc(Br)cc2[nH]1`, the midpoint of inhibition, the IC50, lay at 0.316 µM.

`Cn1cc(-c2cc(CN)cc([C@@H]3C[C@H]3c3cc(Cl)cc(NC(=O)OCc4ccccc4)c3)c2)cn1` returned an IC50 of 13.3 µM.

The values above are taken from ChEMBL document CHEMBL5604062, “ASAP - ZIKV NS2B-NS3 protease fluorescence dose response” (2024).
